Values of other authors as cited in US20120258972A1, “Composition and Methods for Treating Hair Loss” (priority 2011, published 2012).

How the values were obtained:
[1] = biological target: T1, Type II isozyme of 5-alpha reductase (Homo sapiens, UniProt P31213)
T1 sequence (P31213 1-254): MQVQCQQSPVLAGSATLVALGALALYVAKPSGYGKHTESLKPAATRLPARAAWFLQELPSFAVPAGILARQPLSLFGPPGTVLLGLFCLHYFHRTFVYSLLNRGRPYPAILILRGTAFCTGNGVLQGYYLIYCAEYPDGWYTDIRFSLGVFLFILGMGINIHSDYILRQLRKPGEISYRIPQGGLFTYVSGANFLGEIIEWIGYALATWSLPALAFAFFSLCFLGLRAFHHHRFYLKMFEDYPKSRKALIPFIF

[2] = biological target: T2, type I isozyme of 5-alpha reductase (Homo sapiens, UniProt P18405)
T2 sequence (P18405 1-259): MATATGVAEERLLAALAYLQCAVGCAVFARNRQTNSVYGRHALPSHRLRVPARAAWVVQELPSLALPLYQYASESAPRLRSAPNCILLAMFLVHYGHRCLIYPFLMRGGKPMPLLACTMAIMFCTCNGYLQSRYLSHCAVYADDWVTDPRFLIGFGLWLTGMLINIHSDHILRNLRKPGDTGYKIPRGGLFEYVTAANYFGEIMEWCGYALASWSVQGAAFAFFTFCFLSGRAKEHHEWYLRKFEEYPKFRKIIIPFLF

[3] = tested on: serum dihydrotestosterone; conditions: oral
male pattern hair loss = conditions: oral dutasteride 0.5 mg and 2.5 mg/day; 12 and 24 weeks
[4] = tested on: men with androgenic alopecia; conditions: ketoconazole shampoo 2% versus 2% minoxidil regimen
C.3H/HeN mice = conditions: topical application

| Structure (SMILES) | Potency relative to finasteride at inhibiting the Type II isozyme of 5-alpha reductase [1] | Potency relative to finasteride at inhibiting the type I isozyme of 5-alpha reductase [2] | Decrease of serum dihydrotestosterone [3] | Hair count compared with 5 mg/day finasteride (male pattern hair loss) | Hair density, size, and proportion of anagen follicles [4] | Effect on hair growth in mice (C.3H/HeN mice) |
| --- | --- | --- | --- | --- | --- | --- |
| C[C@]12C=CC(=O)N[C@@H]1CC[C@@H]1[C@@H]2CC[C@]2(C)[C@@H](C(=O)Nc3cc(C(F)(F)F)ccc3C(F)(F)F)CC[C@@H]12 [dutasteride] | 3 times | more than 100 times | up to 90% | superior hair count | – | – |
| CC(C)(C)NC(=O)[C@H]1CC[C@H]2[C@@H]3CC[C@H]4NC(=O)C=C[C@]4(C)[C@H]3CC[C@]12C [finasteride] | – | – | about 70% | – | – | – |
| CC(=O)N1CCN(c2ccc(OCC3COC(Cn4ccnc4)(c4ccc(Cl)cc4Cl)O3)cc2)CC1 (stereo not shown) [ketoconazole] | – | – | – | – | improved almost similarly | stimulatory effect on hair growth |
